# What was measured:
# [1] = target: T1, LXRα ligand binding domain (Homo sapiens, UniProt Q13133); experiment: Ligand Sensing Assay for LXRα agonist activity; format: biochemical; conditions: 1 μM; over a background reading of 10000 fluorescence units
# T1 construct: His tag; made in house
# T1 sequence (Q13133 183-447): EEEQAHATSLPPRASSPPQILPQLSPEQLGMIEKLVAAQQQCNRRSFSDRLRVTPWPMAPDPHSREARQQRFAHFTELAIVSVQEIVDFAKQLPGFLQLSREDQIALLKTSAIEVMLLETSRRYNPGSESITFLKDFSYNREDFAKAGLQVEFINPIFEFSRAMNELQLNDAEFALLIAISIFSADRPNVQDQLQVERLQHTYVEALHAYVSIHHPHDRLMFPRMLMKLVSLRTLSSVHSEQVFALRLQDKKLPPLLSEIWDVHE
# T1 sequence (Q15788 676-700 partner): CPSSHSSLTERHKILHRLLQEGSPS
# Method: Test Method 2: Ligand Sensing Assay for LXRα Agonist Activity
# The assay for LXRα was run according to the procedures of Test Method 1, above using his-tagged LXRα ligand binding domain (amino acids 183-447 of Genbank accession number U22662, with the 14th amino acid corrected to A from R). In this assay 1 μM 24(S),25-epoxycholesterol gave a reading of 20000 fluorescence units over a background reading of 10000 fluorescence units.
# [2] = target: T2, human LXRβ ligand binding domain (Homo sapiens, UniProt P55055); experiment: Ligand Sensing Assay (LiSA) for LXRβ agonist activity (recruitment of SRC1-derived peptide); format: biochemical; conditions: 1 μM; over a background reading of 10000 fluorescence units
# T2 construct: made in house; host or cells: E. coli BL21 (DE3), vector pRSETa
# T2 sequence (P55055 184-460 limits assumed): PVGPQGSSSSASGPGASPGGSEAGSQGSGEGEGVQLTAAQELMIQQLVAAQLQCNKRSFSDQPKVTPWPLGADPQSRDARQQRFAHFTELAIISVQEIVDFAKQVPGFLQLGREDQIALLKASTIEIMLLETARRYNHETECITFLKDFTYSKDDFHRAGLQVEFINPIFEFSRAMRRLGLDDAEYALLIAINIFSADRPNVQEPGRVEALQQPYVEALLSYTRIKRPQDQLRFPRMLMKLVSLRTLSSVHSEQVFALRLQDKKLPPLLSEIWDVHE
# T2 sequence (Q15788 676-700 partner limits assumed): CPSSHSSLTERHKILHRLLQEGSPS
# Text: The term “LXR modulator,” as used herein, means a small molecule that modulates the biological activities of LXRα and/or LXRβ. More specifically, such an LXR modulator either enhances or inhibits the biological activities of LXR. If such a modulator partially or completely enhances the biological activities of LXR, it is a partial or complete LXR agonist, respectively. […] Preferably, the LXR modulator compounds of this invention are LXR agonists. As used herein, the term “LXR agonist” refers to compounds which achieve at least 20% activation of LXR relative to 24(S),25-epoxycholesterol, the appropriate positive control in the HTRF assay described below in Test Method 1. It should be noted that to show activity in the specific Test Methods described herein, the LXR modulator compound must bind to the LXR nuclear receptor and recruit the specific peptide derived from the coactivator protein, SRC1, to the modulator compound-bound LXR complex. […]
# Typically 25-50 g of cell paste is resuspended in 250-500 mL TBS, pH 8.0 (25 mM Tris, 150 mM NaCl). […] After washing to baseline absorbance with equilibration buffer, the column is washed with approximately one column volume of TBS pH […] containing 95 mM imidazole. […] Afterwashing to baseline absorbance with the dilution buffer the protein is eluted with a gradient from 50-500 mM NaCl. […]
smiles,measurement,setting,value
"C[C@H](CC[C@@H]1OC1(C)C)[C@H]1CC[C@H]2[C@@H]3CC=C4C[C@@H](O)CC[C@]4(C)[C@H]3CC[C@]12C [24(S),25-epoxycholesterol]",reading,[1],20000 fluorescence units
same,reading,[2],20000 fluorescence units
